These results are taken from US20030212084A1, “Naphthrydine compounds and their azaisosteric analogues as antibacterials” (priority 1998, published 2003).

Type in all cases: cell-based
In one assay the test system is some of these organisms. Kind of assay: MIC against various organisms (unspecified subset). The settings on record: against some of these organisms (those of the table). The procedure: (§1) The MIC (μg/ml) of compounds 1 and 2 against various organisms was determined.
For the next assay, the system named is S. aureus Oxford. Kind of assay: MIC against S. aureus Oxford. The settings on record: Staphylococcus aureus. As to the method:
as §1

The next assay has as its system S. aureus WCUH29. Kind of assay: MIC against S. aureus WCUH29. The settings on record: Staphylococcus aureus. As to the method: as §1
A further assay concerns S. aureus Carter 37. The assay can be described thus: MIC against S. aureus Carter 37. The settings on record: Staphylococcus aureus, CARTER37. As to the method: as §1
The subject of another assay is E. faecalis I. The assay can be described thus: MIC against E. faecalis I. As to conditions: Enterococcus faecalis. As to the method:
as §1

A further assay relates to M. catarrhalis Ravasio. Kind of assay: MIC against M. catarrhalis Ravasio. The settings on record: Moraxella catarrhalis. As to the method: as §1
Another assay has as its system S. pneumoniae R6. The assay can be described thus: MIC against S. pneumoniae R6. The settings on record: Streptococcus pneumoniae. As to the method: as §1

≈ marks a conversion by molar mass, not a printed value. Where only a bound is given, the exact number is not on record here.

One may read the MIC as the lowest concentration found to suppress growth. Turning to `CCCCCCCN1CCC(C(=O)Nc2ccnc3ccc(OC)nc23)CC1` [Example 3, 1-Heptyl-4-(6-methoxy-1,5-naphthyridin-4-yl)aminocarbonyl Piperidine], the minimum inhibitory concentration (MIC) in the assay with some of these organisms was ≤ 1 µg/mL.
As to `CCCCCCCN1CC[C@@H](CC(=O)Nc2ccnc3ccc(OC)nc23)[C@@H](CC(N)=O)C1.O=C(O)C(=O)O` [Example 6, [3R,4S]-1-Heptyl-4-N-(6-methoxy-1,5-naphthyridin-4-yl)-3,4-piperidinediacetamide Oxalate], the minimum inhibitory concentration (MIC) in the assay on some of these organisms was ≤ 1 µg/mL.
As for `C=C[C@H]1CN(CCCCCCC)CC[C@H]1CCOc1ncnc2ccc(OC)cc12` [Example 2, [3R, 4S]-1-Heptyl-4-[2-(6-methoxyquinazolin4-oxy)ethyl]-3-ethenylpiperidine], the minimal inhibitory concentration (MIC) was found to be 4 µg/mL (≈ 9.72 µM) in the assay on S. aureus Oxford; 4 µg/mL (≈ 9.72 µM) against S. aureus WCUH29; 4 µg/mL (≈ 9.72 µM) in the assay on S. aureus Carter 37; 8 µg/mL (≈ 19.4 µM) with E. faecalis I; 4 µg/mL (≈ 9.72 µM) in the assay with M. catarrhalis Ravasio; 8 µg/mL (≈ 19.4 µM) against S. pneumoniae R6.
Turning to `C=C[C@H]1CN(CCCCCCC)CC[C@H]1CCN(C)c1ncnc2ccc(OC)cc12` [Example 1, [3R, 4S]-1-Heptyl-4-[N-methyl-N-(6-methoxy-quinazolin-4-yl)-2-aminoethyl]-3-ethenylpiperidine], the MIC against S. aureus Oxford was found to be 0.5 µg/mL (≈ 1.18 µM); in the assay with S. aureus WCUH29 it was 0.5 µg/mL (≈ 1.18 µM); with S. aureus Carter 37 it was 0.5 µg/mL (≈ 1.18 µM); in the assay with E. faecalis I it was 4 µg/mL (≈ 9.42 µM); in the assay on M. catarrhalis Ravasio, 0.5 µg/mL (≈ 1.18 µM); against S. pneumoniae R6, 0.5 µg/mL (≈ 1.18 µM).
`C=C[C@H]1CN(CCCCCCC)CC[C@H]1CC(O)Cc1ccnc2ccc(OC)nc12` (mixture of isomers) [Example 5, [3R,4S]-1-Heptyl-3-ethenyl-4-[2-(R,S)-hydroxy-3-(6-methoxy-1,5-naphthyridin-4-yl)propyl]piperidine]: the MIC in the assay on some of these organisms is ≤ 1 µg/mL.
